Laboratory results: patent US4150126A, “Novel enol esters of steroids, compositions containing such compounds, processes for their preparation and methods of treatment therewith” (Aktiebolaget Leo, priority 1976, dated 1979)

How the values were obtained:
[1] = Progestional activity, Clauberg test; assay type: in vivo; details: standard scale of McPhail, preliminary experiments
Source text: The progestional activities of compounds 1:1, 1:2, 1:14, 2:2, and 2:11 are investigated in the Clauberg test using the prinicpal procedure as described by Elton and Edgren (Endocrinology 63 (1958) 464) and using the standard scale of McPhail (J. Physiol., London, 8 (1934) 145).

[2] = Thymolytic activity (Hilger, Endocrine Bioassay Data, assay 8); assay type: in vivo; details: preliminary experiments
Source text: In preliminary experiments, invvestigating the thymolytic effect according to A. C.

[3] = test system: ventral prostate; experiment: Androgenic effect in castrated male rats (ventral prostate weight); assay type: in vivo; details: both after subcutaneous and intraperitoneal administration; one daily injection for 7 days; preliminary experiments
Experimental: The androgenic activity, as described below, is determined with established methods (see e.g. Dorfman, R.: Methods in Hormone Research, vol. II, Acad. Press, New York and London 1962, p. 275).
The androgenic effect is assayed in castrated male rats. Beginning two weeks after castration the animals are given one daily injection of the compound for 7 days. The weight of the ventral prostate is determined on the 8th day.

[4] = test system: Hepatoma AH 130; experiment: Hepatoma AH 130 tumour growth inhibition in rats, i.p.; assay type: in vivo, Sprague-Dawley rats; details: Hepatoma AH 130, one injection i.p.
Source text: (§1) LD50 is the dose that causes a 50 percent lethality of the animals, and ED50 is the dose that causes a 50 percent reduction of tumour size.
(§2) From the data below it is obvious that the compounds have a very low toxicity, and that the therapeutic indexes (T.I.), i.e. the ratios LD50/ED50, are very high.
(§3) The experimental design is in accordance with the standards set by the CCNSC (Cancer Cheomotherapy Reports, January 1959 and December 1962).
(§4) Experimental animals: Sprague-Dawley rats.
Tumour implant: 5 × 10^6 tumour cells i.p.
(§5) Therapy: One injection i.p. on the day following implantation.
(§6) Termination: The animals are killed on the 8th day.
(§7) Evaluation: Weights of tumours of test animals are compared
(§8) with those of control animals.

[5] = test system: Ehrlich ascites tumour, ELD hyperdiploid (46 chromosomes); experiment: Ehrlich ascites tumour growth inhibition in mice, i.p.; assay type: in vivo, SPF NMRI mice; details: one injection i.p.; for Tumour weight Treated/Control (%): killed on 8th day
Source text: as §3
Ehrlich ascites tumour, ELD hyperdiploid
Experimental animals: SPF NMRI mice.
Tumour implant: 2 × 10^6 tumour cells i.p.
as §5, §6
Evaluation: Weight of tumours of test animals compared with
those of control animals.

[6] = test system: Walker carcinosarcoma 256; experiment: Walker carcinosarcoma 256 tumour growth inhibition in rats, p.o.; assay type: in vivo, Sprague-Dawley rats; details: Walker carcinosarcoma 256, daily p.o. for 5 days
Source text: as §1, §2, §3
Walker carcinosarcoma 256
as §4
Tumour implant: Tumour pieces with 2-4 mm diameter, subcu-
Therapy: Daily p.o. administration for 5 days starting on
the day following implantation.
Termination: The animals are killed on the 9th day.
as §7, §8

CC(=O)[C@H]1CC[C@H]2[C@@H]3CC=C4C=C(OC(=O)CCCc5ccc(N(CCCl)CCCl)cc5)CC[C@]4(C)[C@H]3CC[C@]12C [Compound 1:2, 3-/4-(4-(N,N-bis(2-chloroethyl)amino)phenyl)butanoyloxy/pregna-3,5-dien-20-one]
progestional activity [1]: considerable activity

CC(=O)OCC(=O)[C@@]1(OC(C)=O)CC[C@H]2[C@@H]3CC=C4C=C(OC(=O)CCCc5ccc(N(CCCl)CCCl)cc5)CC[C@]4(C)[C@H]3C(=O)C[C@@]21C [1:15, 17,21-diacetoxy-3-[4-(4-(N,N-bis(2-chloroethyl)amino)phenyl)butanoyloxy]pregna-3,5-dien-11,20-dione]
thymolytic effect [2]: significant activity

CC(=O)O[C@]1(C(C)=O)CC[C@H]2[C@@H]3CC=C4C=C(OC(=O)Cc5ccc(N(CCCl)CCCl)cc5)CC[C@]4(C)[C@H]3CC[C@@]21C [Compound 1:14, 17-acetoxy-3-[4-(N,N-bis(2-chloroethyl)amino)phenylacetoxy]pregna-3,5-dien-20-one]
progestional activity [1]: considerable activity

CC(=O)OCC(=O)[C@H]1CC[C@H]2[C@@H]3CC=C4C=C(OC(=O)CCCc5ccc(N(CCCl)CCCl)cc5)CC[C@]4(C)[C@H]3CC[C@]12C [1:17, 21-acetoxy-3-[4-(4-(N,N-bis(2-chloroethyl)amino)phenyl)butanoyloxy]-pregna-3,5-dien-20-one]
thymolytic effect [2]: significant activity

CC(=O)O[C@H]1CC[C@H]2[C@@H]3CC=C4C=C(OC(=O)CCCc5ccc(N(CCCl)CCCl)cc5)CC[C@]4(C)[C@H]3CC[C@]12C [1:11, 17β-acetoxy-3-[4-(4-(N,N-bis(2-chloroethyl)amino)phenyl)butanoyloxy]androsta-3,5-diene]
androgenic effect [3]: considerable effect

CC(=O)OCC(=O)[C@@]1(OC(C)=O)CC[C@H]2[C@@H]3CC=C4C=C(OC(=O)CCCc5ccc(N(CCCl)CCCl)cc5)CC[C@]4(C)[C@H]3CC[C@@]21C [1:16, 17,21-diacetoxy-3-[4-(4-(N,N-bis(2-chloroethyl)amino)phenyl)butanoyloxy]-pregna-3,5-dien-20-one]
thymolytic effect [2]: significant activity

C#C[C@]1(OC(C)=O)CC[C@H]2[C@@H]3CC=C4C=C(OC(=O)CCCc5ccc(N(CCCl)CCCl)cc5)CC[C@@H]4[C@H]3CC[C@@]21C [Compound 2:2, 17β-acetoxy-3/4-(4-(N,N-bis(2-chloroethyl)amino)phenyl)butanoyloxy/-17α-ethynylestra-3,5-diene]
progestional activity [1]: considerable activity

CC(=O)O[C@H]1CC[C@H]2[C@@H]3CCC4CC(OC(=O)CCCc5ccc(N(CCCl)CCCl)cc5)=CC[C@]4(C)[C@H]3CC[C@]12C (stereo partly drawn) [1:12, 17β-acetoxy-3-[4-(4-(N,N-bis(2-chloroethyl)amino)phenyl)butanoyloxy]androst-2-ene]
androgenic effect [3]: considerable effect

CCC(=O)O[C@H]1CC[C@H]2[C@@H]3CC=C4C=C(OC(=O)[C@H](Cc5ccc(N(CCCl)CCCl)cc5)NC(C)=O)CC[C@]4(C)[C@H]3CC[C@]12C [1:13, 3-[(2S)-2-acetamido-3-(4-(N,N-bis(2-chloroethyl)amino)phenyl)propanoyloxy]-17β-propanoyloxyandrosta-3,5-diene]
anti-tumour activity [4]: exhibit anti-tumour activity

CC(=O)O[C@]1(C(C)=O)CC[C@H]2[C@@H]3CC=C4C=C(OC(=O)CCCc5ccc(N(CCCl)CCCl)cc5)CC[C@]4(C)[C@H]3CC[C@@]21C [Compound 1:1, 17-acetoxy-3-/4-(4-(N,N-bis(2-chloroethyl)amino)phenyl)butanoyloxy/pregna-3,5-dien-20-one]
Mortality ([5]; 500 mg/kg): 0/12 | Tumour weight Treated/Control (%) ([5]; 500 mg/kg): 1% | anti-tumour activity [4]: exhibit anti-tumour activity | progestional activity [1]: considerable activity

CC(=O)O[C@H]1CC[C@H]2[C@@H]3CC=C4C=C(OC(=O)Cc5ccc(N(CCCl)CCCl)cc5)CC[C@]4(C)[C@H]3CC[C@]12C [1:3]
androgenic effect [3]: considerable effect

CC(=O)O[C@H]1CC[C@H]2[C@@H]3CC[C@H]4CC(OC(=O)c5ccc(C)c(N(CCCl)CCCl)c5)=CC[C@]4(C)[C@H]3CC[C@]12C [Compound 2:1, 17β-acetoxy-3-/3-(N,N-bis(2-chloroethyl)amino)-4-methylbenzoyloxy/androst-2-ene]
anti-tumour activity [6]: exhibit anti-tumour activity

CC(=O)O[C@]1(C(C)=O)CC[C@H]2[C@@H]3CC=C4C=C(OC(=O)c5ccc(C)c(N(CCCl)CCCl)c5)CC[C@]4(C)[C@H]3CC[C@@]21C [2:11, 17-acetoxy-3-[3-(N,N-bis(2-chloroethyl)amino)-4-methylbenzoyloxy]pregna-3,5-dien-20-one]
Mortality ([5]; 1000 mg/kg): 0/12 | Tumour weight Treated/Control (%) ([5]; 1000 mg/kg): 2% | progestional activity [1]: considerable activity
